According to patent publication US20130053310A1 (NOVO NORDISK A/S, priority 2010, published 2013):
Peptide text beside a SMILES is read from it.

Experiments:
glucagon receptor = molecular target: T1, glucagon receptor (Homo sapiens, UniProt P47871); experiment: Assay (I) Glucagon activity: cAMP biosensor (ACTOne) FLIPR assay in HEK-293 cells with cloned glucagon receptor; assay type: cell-based
T1 construct: expressed in transfected cells
Protocol: The cells (14000 per well) were incubated (37° C., 5% CO2) overnight in 384-well plates. Next day the cells were loaded with a calcium responsive dye that only distributed into the cytoplasm. Probenecid, an inhibitor of the organic anion transporter, was added to prevent the dye from leaving the cell. A PDE inhibitor was added to prevent formatted cAMP from being degraded. […] End point data were collected after 6 minutes. An increase in intracellular cAMP was proportional to an increased in calcium concentrations in the cytoplasm. When calcium was bound the dry a fluorescence signal was generated. EC50-values were calculated in Prism5.

[1] = Assay (II) ThT fibrillation assay for physical stability; assay type: physicochemical; details: ThT fibrillation assay, pH 4.0, 250 μM, 10 mM glycylglycine, 45 hours at 37° C., shaking 960 rpm
Text: This has traditionally been measured by visual inspection of the sample. However, that kind of measurement is very subjective and depending on the observer. Therefore, the application of a small molecule indicator probe is much more advantageous.
Here, F is the ThT fluorescence at the time t. The constant t0 is the time needed to reach 50% of maximum fluorescence.
Few of those intermediates nucleate to form a template onto which further intermediates may assembly and the fibrillation proceeds. The lag-time corresponds to the interval in which the critical mass of nucleus is built up and the apparent rate constant is the rate with which the fibril itself is formed.
Samples were prepared freshly before each assay. […] The pH of the sample was adjusted to the desired value using appropriate amounts of concentrated NaOH and HCl. Thioflavin T was added to the samples from a stock solution in H2O to a final concentration of 1 μM.
The plate was sealed with Scotch Pad (Qiagen).
Each run was initiated by incubating the plate at the assay temperature for 10 min. The plate was measured every 20 minutes for a desired period of time. Between each measurement, the plate was shaken and heated as described.
The supernatant was filtered through a 0.22 μm filter and an aliquot was transferred to a HPLC vial.
The measurement points were saved in Microsoft Excel format for further processing and curve drawing and fitting was performed using GraphPad Prism.
The data set may be fitted to Eq. (1).

T1 sequence (P47871 26-477): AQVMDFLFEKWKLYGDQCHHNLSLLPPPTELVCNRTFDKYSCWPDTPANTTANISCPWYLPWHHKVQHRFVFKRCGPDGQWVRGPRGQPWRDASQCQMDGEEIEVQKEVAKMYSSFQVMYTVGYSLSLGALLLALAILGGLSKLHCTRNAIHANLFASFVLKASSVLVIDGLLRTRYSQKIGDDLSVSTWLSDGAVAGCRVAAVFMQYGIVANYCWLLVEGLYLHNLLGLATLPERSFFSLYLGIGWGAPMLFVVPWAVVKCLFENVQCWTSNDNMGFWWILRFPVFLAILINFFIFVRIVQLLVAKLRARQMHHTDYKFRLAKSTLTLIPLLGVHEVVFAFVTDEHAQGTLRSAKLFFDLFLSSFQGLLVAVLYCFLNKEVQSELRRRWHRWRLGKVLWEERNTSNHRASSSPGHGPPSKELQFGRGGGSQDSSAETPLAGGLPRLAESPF

Q: With `CC(C)C[C@H](NC(=O)[C@H](Cc1ccc(O)cc1)NC(=O)[C@H](CCCCN)NC(=O)[C@H](CO)NC(=O)[C@H](Cc1ccc(O)cc1)NC(=O)[C@H](CC(=O)O)NC(=O)[C@H](CO)NC(=O)[C@@H](NC(=O)[C@H](Cc1ccccc1)NC(=O)[C@@H](NC(=O)CNC(=O)[C@H](CCC(N)=O)NC(=O)[C@H](CO)NC(=O)[C@@H](N)Cc1c[nH]cn1)[C@@H](C)O)[C@@H](C)O)C(=O)N[C@@H](CC(=O)O)C(=O)N[C@@H](CO)C(=O)N[C@@H](CCCNC(=N)N)C(=O)N[C@@H](CCCNC(=N)N)C(=O)N[C@@H](C)C(=O)N[C@@H](CCC(N)=O)C(=O)N[C@@H](CCC(=O)O)C(=O)N[C@@H](Cc1ccccc1)C(=O)N[C@H](C(=O)N[C@@H](CCC(N)=O)C(=O)N[C@@H](CCCNC(=N)N)C(=O)N[C@@H](CC(C)C)C(=O)N[C@@H](CC(C)C)C(=O)N[C@@H](CO)C(=O)N[C@H](C(=O)O)[C@@H](C)O)C(C)C` [Example 6, [Glu^21, Arg^25, Leu^27, Ser^28]-Glucagon] as the compound, how does the EC50 (glucagon receptor) read?
A: Its EC50 is 0.026 nM.

Q: What about the Assay (II) (pH 4.0) Lag time (hours) [1] of the same compound?
A: Its Assay (II) (pH 4.0) Lag time (hours) is > 45 hours.

Q: With `CC(C)C[C@H](NC(=O)[C@H](Cc1ccc(O)cc1)NC(=O)[C@H](CCCCN)NC(=O)[C@H](CO)NC(=O)[C@H](Cc1ccc(O)cc1)NC(=O)[C@H](CC(=O)O)NC(=O)[C@H](CO)NC(=O)[C@@H](NC(=O)[C@H](Cc1ccccc1)NC(=O)[C@@H](NC(=O)CNC(=O)[C@H](CCC(N)=O)NC(=O)[C@H](CO)NC(=O)[C@@H](N)Cc1c[nH]cn1)[C@@H](C)O)[C@@H](C)O)C(=O)N[C@@H](CC(=O)O)C(=O)N[C@@H](CO)C(=O)N[C@@H](CCCNC(=N)N)C(=O)N[C@@H](CCCNC(=N)N)C(=O)N[C@@H](C)C(=O)N[C@@H](CCC(N)=O)C(=O)N[C@@H](CC(=O)O)C(=O)N[C@@H](Cc1ccccc1)C(=O)N[C@H](C(=O)N[C@@H](CCC(N)=O)C(=O)N[C@@H](CCCCN)C(=O)N[C@@H](CC(C)C)C(=O)N[C@@H](CC(C)C)C(=O)N[C@@H](CC(N)=O)C(=O)N[C@H](C(=O)O)[C@@H](C)O)C(C)C` [Example 8, [Lys^25, Leu^27]-Glucagon] as the compound, how does the EC50 (glucagon receptor) read?
A: Its EC50 is 0.1 nM.

Q: And the Assay (II) (pH 4.0) Lag time (hours) [1]?
A: The Assay (II) (pH 4.0) Lag time (hours) was > 45 hours.

Q: Which EC50 (glucagon receptor) does the source give for `CC(C)C[C@H](NC(=O)[C@H](Cc1ccc(O)cc1)NC(=O)[C@H](CCCCN)NC(=O)[C@H](CO)NC(=O)[C@H](Cc1ccc(O)cc1)NC(=O)[C@H](CC(=O)O)NC(=O)[C@H](CO)NC(=O)[C@@H](NC(=O)[C@H](Cc1ccccc1)NC(=O)[C@@H](NC(=O)CNC(=O)[C@H](CCC(N)=O)NC(=O)[C@H](CO)NC(=O)[C@@H](N)Cc1c[nH]cn1)[C@@H](C)O)[C@@H](C)O)C(=O)N[C@@H](CC(=O)O)C(=O)N[C@@H](CO)C(=O)N[C@@H](CCCNC(=N)N)C(=O)N[C@@H](CCCNC(=N)N)C(=O)N[C@@H](C)C(=O)N[C@@H](CCC(N)=O)C(=O)N[C@@H](CC(=O)O)C(=O)N[C@@H](Cc1ccccc1)C(=O)N[C@H](C(=O)N[C@@H](CCC(N)=O)C(=O)N[C@@H](Cc1c[nH]cn1)C(=O)N[C@@H](CC(C)C)C(=O)N[C@@H](CC(C)C)C(=O)N[C@@H](CC(N)=O)C(=O)N[C@H](C(=O)O)[C@@H](C)O)C(C)C` [Example 7, [His^25, Leu^27]-Glucagon] here?
A: The EC50 was 0.019 nM.

Q: And the Assay (II) (pH 4.0) Lag time (hours) [1]?
A: The Assay (II) (pH 4.0) Lag time (hours) was > 45 hours.

Q: Which results are given for `CC(C)C[C@H](NC(=O)[C@H](Cc1ccc(O)cc1)NC(=O)[C@H](CCCCN)NC(=O)[C@H](CO)NC(=O)[C@H](Cc1ccc(O)cc1)NC(=O)[C@H](CC(=O)O)NC(=O)[C@H](CO)NC(=O)[C@@H](NC(=O)[C@H](Cc1ccccc1)NC(=O)[C@@H](NC(=O)CNC(=O)[C@H](CCC(N)=O)NC(=O)[C@H](CO)NC(=O)[C@@H](N)Cc1c[nH]cn1)[C@@H](C)O)[C@@H](C)O)C(=O)N[C@@H](CC(=O)O)C(=O)N[C@@H](CO)C(=O)N[C@@H](CCCNC(=N)N)C(=O)N[C@@H](CCCNC(=N)N)C(=O)N[C@@H](C)C(=O)N[C@@H](CCC(N)=O)C(=O)N[C@@H](CCC(=O)O)C(=O)N[C@@H](Cc1ccccc1)C(=O)N[C@H](C(=O)N[C@@H](CCC(N)=O)C(=O)N[C@@H](CCCCN)C(=O)N[C@@H](CC(C)C)C(=O)N[C@@H](CC(C)C)C(=O)N[C@@H](CC(N)=O)C(=O)N[C@H](C(=O)O)[C@@H](C)O)C(C)C` [Example 9, [Glu^21, Lys^25, Leu^27]-Glucagon]?
A: EC50 (glucagon receptor): 0.043 nM; Assay (II) (pH 4.0) Lag time (hours) [1]: > 45 hours

Q: For `CC(C)C[C@H](NC(=O)[C@H](Cc1ccc(O)cc1)NC(=O)[C@H](CCCCN)NC(=O)[C@H](CO)NC(=O)[C@H](Cc1ccc(O)cc1)NC(=O)[C@H](CC(=O)O)NC(=O)[C@H](CO)NC(=O)[C@@H](NC(=O)[C@H](Cc1ccccc1)NC(=O)[C@@H](NC(=O)CNC(=O)[C@H](CCC(N)=O)NC(=O)[C@H](CO)NC(=O)[C@@H](N)Cc1c[nH]cn1)[C@@H](C)O)[C@@H](C)O)C(=O)N[C@@H](CC(=O)O)C(=O)N[C@@H](CO)C(=O)N[C@@H](CCCNC(=N)N)C(=O)N[C@@H](CCCNC(=N)N)C(=O)N[C@@H](C)C(=O)N[C@@H](CCC(N)=O)C(=O)N[C@@H](CC(=O)O)C(=O)N[C@@H](Cc1ccccc1)C(=O)N[C@H](C(=O)N[C@@H](CCC(N)=O)C(=O)N[C@@H](Cc1ccc(OP(=O)(O)O)cc1)C(=O)N[C@@H](CC(C)C)C(=O)N[C@@H](CC(C)C)C(=O)N[C@@H](CC(N)=O)C(=O)N[C@H](C(=O)O)[C@@H](C)O)C(C)C` [Example 2, [(O-phosphono)Tyr^25,Leu^27]Glucagon], which EC50 (glucagon receptor) is on record?
A: The EC50 was 0.017 nM.

Q: For `CC(C)C[C@H](NC(=O)[C@H](Cc1ccc(O)cc1)NC(=O)[C@H](CCCCN)NC(=O)[C@H](CO)NC(=O)[C@H](Cc1ccc(O)cc1)NC(=O)[C@H](CC(=O)O)NC(=O)[C@H](CO)NC(=O)[C@@H](NC(=O)[C@H](Cc1ccccc1)NC(=O)[C@@H](NC(=O)CNC(=O)[C@H](CCC(N)=O)NC(=O)[C@H](CO)NC(=O)[C@@H](N)Cc1c[nH]cn1)[C@@H](C)O)[C@@H](C)O)C(=O)N[C@@H](CC(=O)O)C(=O)N[C@@H](CO)C(=O)N[C@@H](CCCNC(=N)N)C(=O)N[C@@H](CCCNC(=N)N)C(=O)N[C@@H](C)C(=O)N[C@@H](CCC(N)=O)C(=O)N[C@@H](CC(=O)O)C(=O)N[C@@H](Cc1ccccc1)C(=O)N[C@H](C(=O)N[C@@H](CCC(N)=O)C(=O)N[C@@H](CCCNC(=N)N)C(=O)N[C@@H](CC(C)C)C(=O)N[C@@H](CC(C)C)C(=O)N[C@@H](CC(N)=O)C(=O)N[C@H](C(=O)O)[C@@H](C)O)C(C)C` [Example 5, [Arg^25, Leu^27]-Glucagon], which EC50 (glucagon receptor) is on record?
A: The EC50 was 0.057 nM.

Q: And the Assay (II) (pH 4.0) Lag time (hours) [1]?
A: The Assay (II) (pH 4.0) Lag time (hours) was > 45 hours.

Q: What does the source list for `CC(C)C[C@H](NC(=O)[C@H](Cc1ccc(O)cc1)NC(=O)[C@H](CCCCN)NC(=O)[C@H](CO)NC(=O)[C@H](Cc1ccc(O)cc1)NC(=O)[C@H](CC(=O)O)NC(=O)[C@H](CO)NC(=O)[C@@H](NC(=O)[C@H](Cc1ccccc1)NC(=O)[C@@H](NC(=O)CNC(=O)[C@H](CCC(N)=O)NC(=O)[C@H](CO)NC(=O)[C@@H](N)Cc1c[nH]cn1)[C@@H](C)O)[C@@H](C)O)C(=O)N[C@@H](CC(=O)O)C(=O)N[C@@H](CO)C(=O)N[C@@H](CCCNC(=N)N)C(=O)N[C@@H](CCCNC(=N)N)C(=O)N[C@@H](C)C(=O)N[C@@H](CCC(N)=O)C(=O)N[C@@H](CC(=O)O)C(=O)N[C@@H](Cc1ccccc1)C(=O)N[C@H](C(=O)N[C@@H](CCC(N)=O)C(=O)N[C@@H](CCCNC(=N)N)C(=O)N[C@@H](CC(C)C)C(=O)N[C@@H](CC(C)C)C(=O)N[C@@H](CCC(=O)O)C(=O)N[C@H](C(=O)O)[C@@H](C)O)C(C)C` [Example 11, [Arg^25, Leu^27, Glu^28]-Glucagon]?
A: EC50 (glucagon receptor): 0.037 nM; Assay (II) (pH 4.0) Lag time (hours) [1]: > 45 hours

Q: Which results are given for `CC(C)C[C@H](NC(=O)[C@H](Cc1ccc(O)cc1)NC(=O)[C@H](CCCCN)NC(=O)[C@H](CO)NC(=O)[C@H](Cc1ccc(O)cc1)NC(=O)[C@H](CC(=O)O)NC(=O)[C@H](CO)NC(=O)[C@@H](NC(=O)[C@H](Cc1ccccc1)NC(=O)[C@@H](NC(=O)CNC(=O)[C@H](CCC(N)=O)NC(=O)[C@H](CO)NC(=O)[C@@H](N)Cc1c[nH]cn1)[C@@H](C)O)[C@@H](C)O)C(=O)N[C@@H](CCC(=O)O)C(=O)N[C@@H](CO)C(=O)N[C@@H](CCCNC(=N)N)C(=O)N[C@@H](CCCNC(=N)N)C(=O)N[C@@H](C)C(=O)N[C@@H](CCC(N)=O)C(=O)N[C@@H](CCC(=O)O)C(=O)N[C@@H](Cc1ccccc1)C(=O)N[C@H](C(=O)N[C@@H](CCC(N)=O)C(=O)N[C@@H](CCCNC(=N)N)C(=O)N[C@@H](CC(C)C)C(=O)N[C@@H](CC(C)C)C(=O)N[C@@H](CC(N)=O)C(=O)N[C@H](C(=O)O)[C@@H](C)O)C(C)C` [Example 10, [Glu^15, Glu^21, Arg^25, Leu^27]-Glucagon] (H-HSQGTFTSDYSKYLESRRAQEFVQRLLNT-OH)?
A: EC50 (glucagon receptor): 0.266 nM; Assay (II) (pH 4.0) Lag time (hours) [1]: > 45 hours
